Assay [1] relates to AtT20 cells stably expressing empty vector (V). Kind of assay: BrdU incorporation by flow cytometry. The settings on record: 10 μM gefitinib, 24 hours.
Experimental: Fixative was prepared by adding 30 mL of 50 mM glycin solution (pH 2.0) to 70 mL ethanol. Cells were fixed for overnight at −20° C. Cells were washed with PBS, and resuspended in incubation solution with anti-BrdU antibody (1:10) for 30 minutes at 37° C. with gentle agitation. […] Samples were washed with PBS and fluorescence was measured by flow cytometry.
Assay [2] has as its system non-tumor pituitary cell cultures.
Assay [3] concerns AtT20 cells stably expressing empty vector (V). Kind of assay: Pomc promoter luciferase assay. Conditions: highest gefitinib dose (10 μM); control cells.
The test system is the same in assay [4]. Put plainly: Cell proliferation assay (cell counting).
Experimental: EGFR WT cells were plated at a density of 2×10^4 per well in 12-well plates with growth medium. Cells were counted by hemocytometer at the indicated times.

Structures are written as SMILES.

Experimental findings from patent publication US9387211B2 (Cedars-Sinai Medical Center, priority 2010, dated 2016) are described below.

In the case of `COc1cc2ncnc(Nc3ccc(F)c(Cl)c3)c2cc1OCCCN1CCOCC1` [gefitinib], the “reduction of BrdU incorporation” value in assay [1] was around 58%. Further, the “pomc mRNA expression levels” value in assay [2] (non-tumor pituitary cell cultures (FIG. 6)) is “unaltered”. The normal pituitary function entry in assay [2] (normal pituitary (FIG. 5F)) is listed as “does not affect”. In addition, the “suppression of pomc promoter activity” value in assay [3] is around 23%. In addition, the “decrease of cell proliferation” value in assay [4] (gefitinib 0.1-10 μM, 24 hours, V) is “not V cell proliferation”. Also, in assay [4] (high dose (10 μM) gefitinib, V cells), the cell number result was “not altered”.
